Results as given in PubChem BioAssay (NCI).
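GI50: concentration for 50% inhibition of growth. TGI is the concentration that stops growth completely.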

Columns and labels:
Assay in all cases: NCI-60 cell line screen, 384-well format
[1] = test system: 786-0 renal
[2] = test system: A498 renal
[3] = test system: A549 NSCLC
[4] = test system: ACHN renal
[5] = test system: BT-549 breast
[6] = test system: CCRF-CEM leukemia
[7] = test system: COLO 205 colon
[8] = test system: DU-145 prostate
[9] = test system: EKVX NSCLC
[10] = test system: HCC-2998 colon
[11] = test system: HCT-116 colon
[12] = test system: HCT-15 colon
[13] = test system: HL-60(TB) leukemia
[14] = test system: HOP-62 NSCLC
[15] = test system: HOP-92 NSCLC
[16] = test system: HS 578T breast
[17] = test system: HT29 colon
[18] = test system: IGROV1 ovarian
[19] = test system: K-562 leukemia
[20] = test system: KM12 colon
[21] = test system: LOX IMVI melanoma
[22] = test system: M14 melanoma
[23] = test system: MALME-3M melanoma
[24] = test system: MCF7 breast
[25] = test system: MDA-MB-231 breast
[26] = test system: MDA-MB-468 breast
[27] = test system: MOLT-4 leukemia
[28] = test system: NCI-H226 lung
[29] = test system: NCI-H23 lung
[30] = test system: NCI-H322M lung
[31] = test system: NCI-H460 NSCLC
[32] = test system: NCI-H522 lung
[33] = test system: NCI/ADR-RES ovarian
[34] = test system: OVCAR-3 ovarian
[35] = test system: OVCAR-4 ovarian
[36] = test system: OVCAR-5 ovarian
[37] = test system: OVCAR-8 ovarian
[38] = test system: PC-3 prostate
[39] = test system: RPMI-8226 leukemia
[40] = test system: RXF 393 renal
[41] = test system: SF-268 CNS
[42] = test system: SF-295 CNS
[43] = test system: SF-539 CNS
[44] = test system: SK-MEL-28 melanoma
[45] = test system: SK-MEL-5 melanoma
[46] = test system: SN12C renal
[47] = test system: SNB-19 CNS
[48] = test system: SNB-75 CNS
[49] = test system: SR leukemia
[50] = test system: SW-620 colon
[51] = test system: T-47D breast
[52] = test system: TK-10 renal
[53] = test system: U251 glioblastoma
[54] = test system: UO-31 renal

In the case of `CC(C)(C)c1nc(-c2cccc(NS(=O)(=O)c3c(F)cccc3F)c2F)c(-c2ccnc(N)n2)s1`, the GI50 [1] is reported as 43.8 µM, the TGI [1] is reported as > 100 µM and the GI50 [2] is reported as 60 µM. For the same molecule, the TGI [2] was > 94.6 µM, the GI50 [3] was 20.2 µM and the TGI [3] was 72.5 µM. The GI50 [4] was 0.183 µM, the TGI [4] was > 100 µM and the GI50 [5] was 42.7 µM. The TGI [5] was 70.1 µM, the GI50 [6] was 14.4 µM and the TGI [6] was > 44.1 µM. For the same molecule, the GI50 [7] was < 0.01 µM, the GI50 [8] was 14.9 µM and the TGI [8] was 41.6 µM. For the same molecule, the GI50 [9] was 26.6 µM, the TGI [9] was 59.6 µM and the GI50 [10] was 34.8 µM. For the same molecule, the TGI [10] was > 74.7 µM, the GI50 [11] was 11.7 µM and the TGI [11] was > 66.4 µM. For the same molecule, the GI50 [12] was 26 µM, the TGI [12] was > 74.4 µM and the GI50 [13] was 3.98 µM. The TGI [13] was 27.3 µM, the GI50 [14] was 55.5 µM and the TGI [14] was > 100 µM. The GI50 [15] was 50 µM, the TGI [15] was > 94 µM and the GI50 [16] was 33 µM. The TGI [16] was > 75.9 µM, the GI50 [17] was 0.0124 µM and the TGI [17] was > 58.4 µM. The GI50 [18] was 7.65 µM, the TGI [18] was > 52.6 µM and the GI50 [19] was 4.59 µM. The TGI [19] was 20.7 µM, the GI50 [20] was 27.7 µM and the TGI [20] was > 70.9 µM. The GI50 [21] was 1.28 µM, the TGI [21] was > 63.8 µM and the GI50 [22] was < 0.01 µM. For the same molecule, the TGI [22] was < 0.017 µM, the GI50 [23] was < 0.01 µM and the GI50 [24] was 25.3 µM. It also gave a TGI [24] of 62.6 µM, a GI50 [25] of 15 µM and a TGI [25] of 37.4 µM. The GI50 [26] was 28.6 µM, the TGI [26] was 57.7 µM and the GI50 [27] was 6.59 µM. For the same molecule, the TGI [27] was 24.3 µM, the GI50 [28] was 22.1 µM and the TGI [28] was 67 µM. It also gave a GI50 [29] of 13.7 µM, a TGI [29] of 52.3 µM and a GI50 [30] of 23 µM. For the same molecule, the TGI [30] was 69.8 µM, the GI50 [31] was 29.3 µM and the TGI [31] was > 75.7 µM. For the same molecule, the GI50 [32] was 7.22 µM, the TGI [32] was 41 µM and the GI50 [33] was 22.6 µM. The TGI [33] was 53.8 µM, the GI50 [34] was 34.1 µM and the TGI [34] was 60.8 µM. It also gave a GI50 [35] of 24.9 µM, a TGI [35] of 52 µM and a GI50 [36] of 23.8 µM. The TGI [36] was > 85.2 µM, the GI50 [37] was 44.3 µM and the TGI [37] was 89 µM. The GI50 [38] was 48.9 µM, the TGI [38] was > 93.6 µM and the GI50 [39] was 5.83 µM. For the same molecule, the TGI [39] was 19.7 µM, the GI50 [40] was 50.5 µM and the TGI [40] was > 81.6 µM. For the same molecule, the GI50 [41] was 42.3 µM, the TGI [41] was > 84.5 µM and the GI50 [42] was 48.1 µM. The TGI [42] was > 100 µM, the GI50 [43] was 49.7 µM and the TGI [43] was > 94.2 µM. For the same molecule, the GI50 [44] was < 0.01 µM, the GI50 [45] was < 0.01 µM and the TGI [45] was > 100 µM. The GI50 [46] was 38.4 µM, the TGI [46] was > 100 µM and the GI50 [47] was 48.7 µM. The TGI [47] was > 100 µM, the GI50 [48] was > 62.8 µM and the TGI [48] was > 81.3 µM. It also gave a GI50 [49] of 6.62 µM, a TGI [49] of 23.8 µM and a GI50 [50] of 32.4 µM. The TGI [50] was > 77.4 µM, the GI50 [51] was 41.5 µM and the TGI [51] was > 100 µM. The GI50 [52] was 11.7 µM, the TGI [52] was > 60.7 µM and the GI50 [53] was 53.8 µM. For the same molecule, the TGI [53] was > 100 µM, the GI50 [54] was 16.6 µM and the TGI [54] was > 100 µM.
